Measured values as given in PubChem BioAssay AID330 (DTP/NCI, 2004).
Values joined by “and” are separate entries in the source; they are usually repeats but may differ in a detail not shown here. Equal entries are not always repeated. Toxic doses and inconclusive results are not listed. The calls were made as follows: active = survival T/C of 150% or more; inactive = T/C below 125% in these data. Square brackets hold non-standard residues; d marks the D form. Peptide text beside a SMILES is read from it. * marks the point of attachment. Cbz = O=C(OCc1ccccc1)*; Dha = C=C(N)C(=O)O

Tested on: P388 leukemia ip, CD2F1 mice, survival T/C
Assay: NCI In Vivo Anticancer Drug Screen. Data for tumor model P388 Leukemia (intraperitoneal) in CD2F1 (CDF1) mice
Conditions: endpoint: median survival time, higher = longer survival
Summary of the method: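 Mice carrying the transplanted tumor received test compound or vehicle. Survival was recorded in each group, and the value is the treated-group measurement divided by that of the vehicle-treated control group.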

[1] = dose: 12.5 mg/kg/injection, schedule: Q01DX009 (ip), vehicle: saline
[2] = dose: 25.0 mg/kg/injection, schedule: Q01DX009 (ip), vehicle: saline
[3] = dose: 50.0 mg/kg/injection, schedule: Q01DX009 (ip), vehicle: saline
[4] = dose: 50.0 mg/kg/injection, schedule: Q01DX005 (ip), vehicle: saline with Tween-80
[5] = dose: 100.0 mg/kg/injection, schedule: Q01DX005 (ip), vehicle: saline with Tween-80
[6] = dose: 200.0 mg/kg/injection, schedule: Q01DX005 (ip), vehicle: saline with Tween-80
[7] = dose: 50.0 mg/kg/injection, schedule: Q01DX005 (ip), vehicle: Klucel (hydroxypropylcellulose) (HPC)
[8] = dose: 50.0 mg/kg/injection, schedule: Q01DX001 (ip), vehicle: Klucel (hydroxypropylcellulose) (HPC)
[9] = dose: 100.0 mg/kg/injection, schedule: Q01DX001 (ip), vehicle: Klucel (hydroxypropylcellulose) (HPC)
[10] = dose: 200.0 mg/kg/injection, schedule: Q01DX001 (ip), vehicle: Klucel (hydroxypropylcellulose) (HPC)
[11] = dose: 50.0 mg/kg/injection, schedule: Q01DX009 (ip), vehicle: Klucel (hydroxypropylcellulose) (HPC)
[12] = dose: 100.0 mg/kg/injection, schedule: Q01DX009 (ip), vehicle: Klucel (hydroxypropylcellulose) (HPC)
[13] = dose: 200.0 mg/kg/injection, schedule: Q01DX009 (ip), vehicle: Klucel (hydroxypropylcellulose) (HPC)
[14] = dose: 100.0 mg/kg/injection, schedule: Q01DX005 (ip), vehicle: Klucel (hydroxypropylcellulose) (HPC)
[15] = dose: 200.0 mg/kg/injection, schedule: Q01DX005 (ip), vehicle: Klucel (hydroxypropylcellulose) (HPC)
[16] = dose: 60.0 mg/kg/injection, schedule: Q01DX005 (ip), vehicle: saline with Tween-80
[17] = dose: 120.0 mg/kg/injection, schedule: Q01DX005 (ip), vehicle: saline with Tween-80
[18] = dose: 100.0 mg/kg/injection, schedule: Q01DX009 (ip), vehicle: saline
[19] = dose: 200.0 mg/kg/injection, schedule: Q01DX009 (ip), vehicle: saline

Measured: T/C

N/C(CCSc1ccccc1N=Cc1ccccc1O)=N/O
inactive: dose: 12.5 mg/kg/injection, schedule: Q01DX009 (ip), vehicle: olive oil, sesame oil, peanut oil 102 % of control | dose: 25.0 mg/kg/injection, schedule: Q01DX009 (ip), vehicle: olive oil, sesame oil, peanut oil 104 % of control | dose: 50.0 mg/kg/injection, schedule: Q01DX009 (ip), vehicle: olive oil, sesame oil, peanut oil 104 % of control

c1ccc(-n2ccnc2C2C3CCN2CC3)cc1 (stereo not drawn)
inactive: [1] 104 % of control | [2] 104 % of control | [3] 111 % of control and 97 % of control

Nc1nc2ncc(CN(C(=O)CCCl)c3ccc(C(=O)NC(CCC(=O)O)C(=O)O)cc3)nc2c(=O)[nH]1 (stereo not drawn)
inactive: dose: 50.0 mg/kg/injection, schedule: Q01DX009 (ip), vehicle: alkali diluted with saline 100 % of control | dose: 100.0 mg/kg/injection, schedule: Q01DX009 (ip), vehicle: alkali diluted with saline 108 % of control | dose: 200.0 mg/kg/injection, schedule: Q01DX009 (ip), vehicle: alkali diluted with saline 101 % of control

O=[N+]([O-])c1ccc(CS(=O)(=O)OCCCl)cc1
inactive: [4] 98 % of control | [5] 98 % of control | [6] 94 % of control

CCOC(=O)NN(C(=O)OCC)C(C(C)=O)C(C)=NCCN=C(C)C(C(C)=O)N(NC(=O)OCC)C(=O)OCC.[Cu] (stereo not drawn)
inactive: dose: 12.5 mg/kg/injection, schedule: Q01DX005 (ip), vehicle: Klucel (hydroxypropylcellulose) (HPC) 100 % of control | dose: 25.0 mg/kg/injection, schedule: Q01DX005 (ip), vehicle: Klucel (hydroxypropylcellulose) (HPC) 105 % of control | [7] 100 % of control and 107 % of control

NC1C(NO)OC(CO)C(O)C1O (stereo not drawn)
inactive: dose: 50.0 mg/kg/injection, schedule: Q01DX005 (ip), vehicle: saline 97 % of control | dose: 100.0 mg/kg/injection, schedule: Q01DX005 (ip), vehicle: saline 96 % of control | dose: 200.0 mg/kg/injection, schedule: Q01DX005 (ip), vehicle: saline 97 % of control

CCC(CC)C1NC(C(CC)CC)N2C(C(CC)CC)N12 (stereo not drawn)
inactive: [8] 103 % of control | [9] 104 % of control | [10] 101 % of control

COc1cc2cc[n+]3c(c2cc1OC)-c1c2cc(OC)c(OC)cc2cc[n+]1CC3
inactive: dose: 12.5 mg/kg/injection, schedule: Q01DX009 (ip), vehicle: saline with Tween-80 100 % of control | dose: 25.0 mg/kg/injection, schedule: Q01DX009 (ip), vehicle: saline with Tween-80 97 % of control

NC1=C(c2cccc(Cl)c2)C(=O)CC12C=CC(=O)C=C2
inactive: [11] 100 % of control | [12] 104 % of control | [13] 102 % of control

N=C(N)c1ccc(N=Nc2c(O)ccc3c2[nH]c2ccccc23)cc1
inactive: [4] 101 % of control | [5] 98 % of control | [6] 106 % of control

CCCSCC(C)C
inactive: dose: 50.0 mg/kg/injection, schedule: Q01DX009 (ip), vehicle: saline with Tween-80 100 % of control | dose: 100.0 mg/kg/injection, schedule: Q01DX009 (ip), vehicle: saline with Tween-80 100 % of control | dose: 200.0 mg/kg/injection, schedule: Q01DX009 (ip), vehicle: saline with Tween-80 109 % of control

CCOP(O)(=S)OCC.[Tb]
inactive: dose: 100.0 mg/kg/injection, schedule: Q04DX003 (ip), vehicle: Klucel (hydroxypropylcellulose) (HPC) 92 % of control | dose: 200.0 mg/kg/injection, schedule: Q04DX003 (ip), vehicle: Klucel (hydroxypropylcellulose) (HPC) 87 % of control | dose: 400.0 mg/kg/injection, schedule: Q04DX003 (ip), vehicle: Klucel (hydroxypropylcellulose) (HPC) 90 % of control

N=C(N)Sc1cc(Br)c[n+]([O-])c1
inactive: [7] 104 % of control | [14] 102 % of control | [15] 100 % of control

C=C1C(OC(=O)c2ccccc2)C2[C@@H](OC(=O)CC)[C@@H](C)C[C@]2(O)C(=O)[C@@H](C)/C=C/C(C)(C)C(=O)C(O)[C@H]1OC(=O)C(C)C (stereo partly drawn)
inactive: [16] 102 % of control | [17] 91 % of control

O=C1CCC(N2C(=O)C3CCCCC3C2=O)C(=O)O1 (stereo not drawn)
inactive: [11] 94 % of control | [12] 108 % of control | [13] 99 % of control

CCOC(=O)c1c2c(n(-c3ccccc3)c1C)C(=O)c1ccccc1C2=O
inactive: [3] 99 % of control | [18] 92 % of control | [19] 98 % of control

CC1(Cl)C(c2ccccc2)=[N+]([O-])[N+]([O-])=C1c1ccccc1
inactive: dose: 100.0 mg/kg/injection, schedule: Q04DX002 (ip), vehicle: saline with Tween-80 112 % of control | dose: 200.0 mg/kg/injection, schedule: Q04DX002 (ip), vehicle: saline with Tween-80 112 % of control

CC1CC(N)=NC1C(=O)NCCC#N (stereo not drawn)
inactive: [1] 97 % of control | [2] 101 % of control | [3] 98 % of control | [18] 90 % of control

O=c1ccn2c(=O)n1CCCCn1cnc3ncnc(c31)SCCC2
inactive: [8] 94 % of control | [9] 86 % of control | [10] 90 % of control | dose: 400.0 mg/kg/injection, schedule: Q01DX001 (ip), vehicle: Klucel (hydroxypropylcellulose) (HPC) 90 % of control

On1cc/c(=N\N=C\c2ccc(N(CCCl)CCCl)cc2)c2ccccc21
inactive: dose: 100.0 mg/kg/injection, schedule: Q04DX003 (ip), vehicle: saline + Tween-80 + alcohol 99 % of control | dose: 200.0 mg/kg/injection, schedule: Q04DX003 (ip), vehicle: saline + Tween-80 + alcohol 106 % of control | dose: 400.0 mg/kg/injection, schedule: Q04DX003 (ip), vehicle: saline + Tween-80 + alcohol 102 % of control

OCC1CCCCC1(O)c1ccccc1 (stereo not drawn)
inactive: [8] 90 % of control | [9] 90 % of control | [10] 90 % of control

CN(C)c1ccc(-c2nnc3c(c(=O)n(C)c(=O)n3C)[n+]2[O-])cc1
inactive: dose: 25.0 mg/kg/injection, schedule: Q01DX001 (ip), vehicle: Klucel (hydroxypropylcellulose) (HPC) 102 % of control | [8] 93 % of control | [9] 100 % of control and 94 % of control

Clc1ccnc2ccc3ccccc3c12
inactive: [3] 107 % of control | [18] 100 % of control and 101 % of control | [19] 100 % of control and 92 % of control

Cc1ccc(N=Nc2c(-c3ccccc3)nn(C(N)=S)c2C)cc1
inactive: dose: 100.0 mg/kg/injection, schedule: Q01DX001 (ip), vehicle: saline with Tween-80 92 % of control | dose: 200.0 mg/kg/injection, schedule: Q01DX001 (ip), vehicle: saline with Tween-80 97 % of control | dose: 400.0 mg/kg/injection, schedule: Q01DX001 (ip), vehicle: saline with Tween-80 103 % of control

CCOc1ccc(C(C)c2cc3c(cc2O)OCO3)cc1 (stereo not drawn)
inactive: [16] 105 % of control | [17] 104 % of control | dose: 240.0 mg/kg/injection, schedule: Q01DX005 (ip), vehicle: saline with Tween-80 109 % of control

CCC[CH2][Sn]1([CH2]CCC)[O]C2C(O)OC(CO)C(O)C2[O]1 (stereo not drawn)
inactive: dose: 1.56 mg/kg/injection, schedule: Q04DX003 (ip), vehicle: saline 107 % of control | dose: 3.12 mg/kg/injection, schedule: Q04DX003 (ip), vehicle: saline 107 % of control and 109 % of control | dose: 6.25 mg/kg/injection, schedule: Q04DX003 (ip), vehicle: saline 111 % of control

Cc1ccc(S(=O)(=O)NC(=O)c2cnc(N(C)C)s2)cc1
inactive: [7] 104 % of control | [14] 101 % of control | [15] 107 % of control

ClC1=CCCCC1
inactive: [2] 100 % of control | [3] 100 % of control | [18] 110 % of control

C=C(NC(=O)C(C)NC(=O)OCc1ccccc1)C(=O)N1CCCC1C(=O)NC(C)C(=O)NC (stereo not drawn) (Cbz-A[Dha]PA-NHMe; configuration not given here)
inactive: [2] 111 % of control | [3] 100 % of control | [18] 96 % of control

C=C1C(=O)OC2C(OC(C)=O)C(C(=O)OC)CC(O)C/C(CO)=C\C(OC(=O)/C(C)=C/C)C12 (stereo not drawn)
inactive: dose: 2.0 mg/kg/injection, schedule: Q01DX009 (ip), vehicle: Klucel (hydroxypropylcellulose) (HPC) 115 % of control | dose: 4.0 mg/kg/injection, schedule: Q01DX009 (ip), vehicle: Klucel (hydroxypropylcellulose) (HPC) 108 % of control | dose: 8.0 mg/kg/injection, schedule: Q01DX009 (ip), vehicle: Klucel (hydroxypropylcellulose) (HPC) 110 % of control | dose: 16.0 mg/kg/injection, schedule: Q01DX009 (ip), vehicle: Klucel (hydroxypropylcellulose) (HPC) 100 % of control

O=C(Nc1ccc(CSc2ccc(Cl)cc2)o1)N1CCOCC1
inactive: [4] 107 % of control | [5] 99 % of control | [6] 98 % of control
